{
  "source": "ChEMBL document CHEMBL4041506",
  "about": "“Urea-containing peptide boronic acids as potent proteasome inhibitors” (Eur J Med Chem, 2017)",
  "key": {"[1]": {"system": "BEL-7404 tumor cell line", "assay": "Antitumor activity against human Bel7404 cells xenografted in BALB/c nude mouse assessed as effect on tumor volume at 1 mg/kg, iv administered once in two days for 24 consecutive days measured on day 13 of compound dosing relative to control", "format": "functional"}, "[2]": {"system": "BEL-7404 tumor cell line", "assay": "Antitumor activity against human Bel7404 cells xenografted in BALB/c nude mouse assessed as effect on tumor volume at 2 mg/kg, iv administered once in two days for 24 consecutive days measured on day 17 of compound dosing relative to control", "format": "functional"}, "[3]": {"system": "BEL-7404 tumor cell line", "assay": "Antitumor activity against human Bel7404 cells xenografted in BALB/c nude mouse assessed as effect on tumor volume at 1 mg/kg, iv administered once in two days for 24 consecutive days measured on day 24 of compound dosing relative to control", "format": "functional"}, "[4]": {"system": "Mus musculus", "assay": "Toxicity in human Bel7404 cells xenografted BALB/c mouse assessed as effect on body weight at 0.5 mg/kg, iv administered once in two days for 24 consecutive days measured on day 1 of compound dosing (reference value: 25.36 +/- 0.97 g)", "format": "organism-based", "details": "in vivo"}, "[5]": {"system": "Mus musculus", "assay": "Toxicity in human Bel7404 cells xenografted BALB/c mouse assessed as effect on body weight at 0.5 mg/kg, iv administered once in two days for 24 consecutive days measured on day 10 of compound dosing (reference value: 26.30 +/- 0.78 g)", "format": "organism-based", "details": "in vivo"}, "[6]": {"system": "Mus musculus", "assay": "Toxicity in human Bel7404 cells xenografted BALB/c mouse assessed as effect on body weight at 1 mg/kg, iv administered once in two days for 24 consecutive days measured on day 17 of compound dosing (reference value: 26.29 +/- 1.03 g)", "format": "organism-based", "details": "in vivo"}, "[7]": {"system": "Mus musculus", "assay": "Toxicity in human Bel7404 cells xenografted BALB/c mouse assessed as effect on body weight at 2 mg/kg, iv administered once in two days for 24 consecutive days measured on day 17 of compound dosing (reference value: 26.29 +/- 1.03 g)", "format": "organism-based", "details": "in vivo"}, "[8]": {"assay": "Plasma concentration in Sprague-Dawley rat at 3 mg/kg, iv administered as bolus measured at 0.0330 hrs by LC/MS/MS analysis", "format": "ADME, organism-based"}, "[9]": {"system": "BEL-7404 tumor cell line", "assay": "Antitumor activity against human Bel7404 cells xenografted in BALB/c nude mouse assessed as effect on tumor volume at iv administered once in two days for 24 consecutive days measured on day 1 of compound dosing relative to control"}},
  "data": [
    {"smiles": "CC(C)C[C@H](NC(=O)[C@H](Cc1ccccc1)NC(=O)N1CCc2ccccc2C1)B(O)O", "values": [
      {"measurement": "fold change (FC)", "setting": "[1]", "result": 2.96},
      {"measurement": "fold change (FC)", "setting": "[2]", "result": 3.2},
      {"measurement": "fold change (FC)", "setting": "[3]", "result": 4.73},
      {"measurement": "Activity", "setting": "[4]", "result": 24.07, "unit": "g"},
      {"measurement": "Activity", "setting": "[5]", "result": 24.78, "unit": "g"},
      {"measurement": "Activity", "setting": "[6]", "result": 24.77, "unit": "g"},
      {"measurement": "Activity", "setting": "[7]", "result": 22.23, "unit": "g"},
      {"measurement": "concentration at 0.033 h", "setting": "[8]", "result": 2610, "unit": "ng/mL"},
      {"measurement": "fold change (FC)", "setting": "[9]", "result": 1}
    ]}
  ]
}
